The results in this text go back to ChEMBL document CHEMBL1201862, “PubChem BioAssay data set” (2004).

What all share (experiment): inhibition of tumour cell growth, NCI panel, 48 h
Test [1] deals with U-251.
Test [2] concerns HOP-62.
In test [3] the test system is MDA-N.
Test [4] deals with OVCAR-8.
The subject of test [5] is Malme-3M.
In test [6] the test system is HCT-15.
Test [7] has as its system IGROV-1.
For test [8], the system named is MOLT-4.
The test system of test [9] is A549.
Test [10] has as its system TK-10.
Test [11] deals with SNB-19.
The subject of test [12] is SF-539.
The test system of test [13] is HT-29.
The test system of test [14] is SN12C.
The test system of test [15] is A498.
Test [16] has as its system NCI-H460.
Test [17] has as its system UACC-62.
For test [18], the system named is PC-3.
For test [19], the system named is NCI-H226.
Test [20] relates to T47D.

Structures are written as SMILES.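 Test compounds were applied to cells in 96-well plates for 48 hours at 5 doses. GI50 marks 50% less growth.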 Activity calls are given as the source filed them. Rule as the data show it: active = GI50 up to about 1.1 µM and inactive = higher.

For the compound `NS(=O)(=O)c1cc(Cl)c(NC(=S)NC(=O)Nc2ccc(Cl)c(Cl)c2)c(Cl)c1`, the GI50 in [1] is 37.2 µM (inactive); in [2], > 100 µM (inactive); in test [3], 33.6 µM (inactive); in test [4] it was 47.6 µM (inactive); in [5], 68.1 µM (inactive); in test [6], 40.9 µM. In addition, the GI50 in test [7] was 81.1 µM (inactive); in test [8], 30.5 µM (inactive); in test [9], 30.5 µM (inactive); in [10], 47.4 µM (inactive); in test [11], 42.9 µM (inactive); in [12], 28.6 µM (inactive). Further, the GI50 in test [13] is 46.8 µM (inactive); in test [14], 36.8 µM (inactive); in test [15] it was 26.7 µM (inactive); in test [16], 30.2 µM (inactive); in test [17], 23.1 µM (inactive); in test [18], 33.9 µM (inactive). The GI50 in test [19] is 30.8 µM (inactive); in [20], 23.8 µM (inactive).
For the compound `Cc1nc2c(=O)n(C)c(=O)n(C)c2o1`, the GI50 was > 100 µM (inactive) in test [1]; > 100 µM (inactive) in [2]; > 100 µM (inactive) in test [3]; > 100 µM (inactive) in test [4]; > 100 µM (inactive) in test [5]; > 100 µM in [6]. For the same compound, the GI50 in test [7], in test [8], in test [9], in [10], in test [11] and in test [12] was > 100 µM (inactive) in each case. Also, the GI50 in test [13], in [14], in [15], in test [16], in test [17] and in test [18] was > 100 µM (inactive) in each case. The GI50 in test [19] and in test [20] was > 100 µM (inactive) each time.
`CC(=O)C(I(OS(=O)(=O)c1ccc(C)cc1)c1ccccc1)=P(c1ccccc1)(c1ccccc1)c1ccccc1`: the GI50 in test [1] is 29.2 µM (inactive); in test [2], 23.3 µM (inactive); in test [3], 15 µM (inactive); in [4], 32.6 µM (inactive); in test [5], 14.8 µM (inactive); in test [6], > 100 µM. In addition, the GI50 in [7] is 35.6 µM (inactive); in test [8], 26.4 µM (inactive); in test [9], 24.4 µM (inactive); in [10], 84.9 µM (inactive); in test [11], 38.5 µM (inactive); in [12], 18.2 µM (inactive). In addition, the GI50 was 18.9 µM (inactive) in [13]; 15.9 µM (inactive) in test [14]; > 100 µM (inactive) in test [15]; 58.5 µM (inactive) in test [16]; 1.06 µM (active) in [17]; 26.5 µM (inactive) in [18]. Moreover, the results for the GI50 in test [19] and in test [20] were 17.1 µM (inactive) and 27 µM (inactive), respectively.
Turning to `CC1=CC(=O)[C@@H](O)[C@]2(C)[C@H]3[C@@]4(O)OC[C@]35[C@H]([C@@H](C)[C@H]4O)[C@@H](OC(=O)C(C)(C)CO)C(=O)O[C@@H]5C[C@@H]12`, the GI50 in test [1] is 0.0281 µM (active); in [2], 0.0989 µM (active); in [3], 0.0769 µM (active); in test [4] it was 0.19 µM (active); in test [5], < 0.01 µM (active); in [6] it was 0.292 µM. Also, the GI50 is < 0.0165 µM (active) in test [7]; 0.0178 µM (active) in test [8]; 2.51 µM (inactive) in [9]; 0.575 µM (active) in test [10]; 0.05 µM (active) in test [11]; < 0.0153 µM (active) in [12]. The GI50 in test [13] is 0.207 µM (active); in test [14], 0.191 µM (active); in [15], 1.42 µM (inactive); in test [16], 0.0568 µM (active); in test [17], 0.0838 µM (active); in test [18] it was 0.0698 µM (active). The results for the GI50 in [19] and in [20] were < 0.0216 µM (active) and 0.0209 µM (active), respectively.
